Experiment: mn = molality of the nth substance listed, in mol/kg
Details: Liquid; for viscosity: Vibrating wire viscometry; for mass density: Vibrating tube method

[Ca+2].[Cl-].[Cl-] [calcium chloride] + O
Details | mass density [kg/m3] | viscosity [mPa·s]
274.75 K, 1300 kPa, m1 = 1 | – | 2.142
274.75 K, 49900 kPa, m1 = 1 | – | 2.117
274.75 K, 99700 kPa, m1 = 1 | – | 2.096
274.87 K, 1270 kPa, m1 = 1 | 1088.12 | –
274.87 K, 15180 kPa, m1 = 1 | 1094.18 | –
274.87 K, 30070 kPa, m1 = 1 | 1100.27 | –
274.87 K, 49880 kPa, m1 = 1 | 1108.27 | –
274.87 K, 69750 kPa, m1 = 1 | 1115.89 | –
274.87 K, 99730 kPa, m1 = 1 | 1126.88 | –
274.98 K, 1310 kPa, m1 = 2.5 | 1201.94 | –
274.98 K, 15210 kPa, m1 = 2.5 | 1207.74 | –
274.98 K, 30100 kPa, m1 = 2.5 | 1212.77 | –
274.98 K, 49930 kPa, m1 = 2.5 | 1219.37 | –
274.98 K, 69770 kPa, m1 = 2.5 | 1225.9 | –
274.98 K, 99750 kPa, m1 = 2.5 | 1235.53 | –
296.18 K, 1280 kPa, m1 = 1 | 1082.39 | –
296.18 K, 15170 kPa, m1 = 1 | 1087.93 | –
296.18 K, 30070 kPa, m1 = 1 | 1093.68 | –
296.18 K, 49900 kPa, m1 = 1 | 1101.19 | –
296.18 K, 69750 kPa, m1 = 1 | 1108.4 | –
296.18 K, 99730 kPa, m1 = 1 | 1118.84 | –
296.21 K, 30100 kPa, m1 = 1 | – | 1.224
296.21 K, 99700 kPa, m1 = 1 | – | 1.237
296.22 K, 1310 kPa, m1 = 2.5 | 1192.77 | –
296.22 K, 15240 kPa, m1 = 2.5 | 1197.73 | –
296.22 K, 30130 kPa, m1 = 2.5 | 1202.82 | –
296.22 K, 49960 kPa, m1 = 2.5 | 1209.46 | –
296.22 K, 69780 kPa, m1 = 2.5 | 1215.91 | –
296.22 K, 99740 kPa, m1 = 2.5 | 1225.32 | –
323.23 K, 1280 kPa, m1 = 2.5 | 1179.3 | –
323.23 K, 15180 kPa, m1 = 2.5 | 1184.63 | –
323.23 K, 30060 kPa, m1 = 2.5 | 1189.89 | –
323.23 K, 49910 kPa, m1 = 2.5 | 1196.52 | –
323.23 K, 69770 kPa, m1 = 2.5 | 1202.94 | –
323.23 K, 99730 kPa, m1 = 2.5 | 1212.15 | –
323.31 K, 1240 kPa, m1 = 1 | 1071.6 | –
323.31 K, 15190 kPa, m1 = 1 | 1077.19 | –
323.31 K, 30070 kPa, m1 = 1 | 1082.81 | –
323.31 K, 49880 kPa, m1 = 1 | 1090.06 | –
323.31 K, 69760 kPa, m1 = 1 | 1097.04 | –
323.31 K, 99750 kPa, m1 = 1 | 1107.2 | –
323.4 K, 1300 kPa, m1 = 1 | – | 0.736
323.4 K, 15200 kPa, m1 = 1 | – | 0.734
323.4 K, 30100 kPa, m1 = 1 | – | 0.732
323.4 K, 49900 kPa, m1 = 1 | – | 0.728
323.4 K, 69800 kPa, m1 = 1 | – | 0.725
348.19 K, 1320 kPa, m1 = 2.5 | 1165.84 | –
348.19 K, 15220 kPa, m1 = 2.5 | 1170.56 | –
348.19 K, 30110 kPa, m1 = 2.5 | 1175.97 | –
348.19 K, 49950 kPa, m1 = 2.5 | 1182.84 | –
348.19 K, 69790 kPa, m1 = 2.5 | 1189.55 | –
348.19 K, 99790 kPa, m1 = 2.5 | 1199.01 | –
348.2 K, 1300 kPa, m1 = 1 | 1058.82 | –
348.2 K, 15220 kPa, m1 = 1 | 1064.57 | –
348.2 K, 30100 kPa, m1 = 1 | 1070.33 | –
348.2 K, 49930 kPa, m1 = 1 | 1077.65 | –
348.2 K, 69790 kPa, m1 = 1 | 1084.72 | –
348.2 K, 99770 kPa, m1 = 1 | 1094.89 | –
373.2 K, 1350 kPa, m1 = 2.5 | 1151.73 | –
373.2 K, 15250 kPa, m1 = 2.5 | 1156.76 | –
373.2 K, 30140 kPa, m1 = 2.5 | 1161.97 | –
373.2 K, 49960 kPa, m1 = 2.5 | 1168.74 | –
373.2 K, 69820 kPa, m1 = 2.5 | 1175.25 | –
373.2 K, 99780 kPa, m1 = 2.5 | 1184.69 | –
373.22 K, 1320 kPa, m1 = 1 | 1042.78 | –
373.22 K, 15230 kPa, m1 = 1 | 1048.82 | –
373.22 K, 30130 kPa, m1 = 1 | 1054.88 | –
373.22 K, 49940 kPa, m1 = 1 | 1062.61 | –
373.22 K, 69790 kPa, m1 = 1 | 1070 | –
373.22 K, 99790 kPa, m1 = 1 | 1080.38 | –
373.45 K, 30100 kPa, m1 = 1 | – | 0.393
373.45 K, 49900 kPa, m1 = 1 | – | 0.399
398.26 K, 1360 kPa, m1 = 2.5 | 1134.93 | –
398.26 K, 15270 kPa, m1 = 2.5 | 1140.45 | –
398.26 K, 30160 kPa, m1 = 2.5 | 1146.01 | –
398.26 K, 49970 kPa, m1 = 2.5 | 1153.12 | –
398.26 K, 69820 kPa, m1 = 2.5 | 1159.89 | –
398.26 K, 99800 kPa, m1 = 2.5 | 1169.63 | –
398.28 K, 1320 kPa, m1 = 1 | 1024.8 | –
398.28 K, 15230 kPa, m1 = 1 | 1031.2 | –
398.28 K, 30120 kPa, m1 = 1 | 1037.76 | –
398.28 K, 49940 kPa, m1 = 1 | 1045.99 | –
398.28 K, 69780 kPa, m1 = 1 | 1053.7 | –
398.28 K, 99790 kPa, m1 = 1 | 1064.71 | –
398.33 K, 15200 kPa, m1 = 1 | – | 0.31
398.33 K, 30100 kPa, m1 = 1 | – | 0.315
398.33 K, 49900 kPa, m1 = 1 | – | 0.321
423.46 K, 1400 kPa, m1 = 1 | – | 0.255
423.46 K, 50000 kPa, m1 = 1 | – | 0.266
423.46 K, 69800 kPa, m1 = 1 | – | 0.272
423.6 K, 1340 kPa, m1 = 1 | 1004.42 | –
423.6 K, 1360 kPa, m1 = 2.5 | 1116.33 | –
423.6 K, 15250 kPa, m1 = 1 | 1011.3 | –
423.6 K, 15260 kPa, m1 = 2.5 | 1122.22 | –
423.6 K, 30150 kPa, m1 = 1 | 1018.56 | –
423.6 K, 30150 kPa, m1 = 2.5 | 1128.37 | –
423.6 K, 49950 kPa, m1 = 1 | 1027.46 | –
423.6 K, 49980 kPa, m1 = 2.5 | 1136 | –
423.6 K, 69810 kPa, m1 = 2.5 | 1143.19 | –
423.6 K, 69820 kPa, m1 = 1 | 1035.71 | –
423.6 K, 99790 kPa, m1 = 2.5 | 1153.51 | –
423.6 K, 99810 kPa, m1 = 1 | 1047.43 | –
448.43 K, 1400 kPa, m1 = 1 | – | 0.226
448.43 K, 69800 kPa, m1 = 1 | – | 0.235
448.83 K, 1360 kPa, m1 = 2.5 | 1096.34 | –
448.83 K, 15250 kPa, m1 = 2.5 | 1102.89 | –
448.83 K, 30150 kPa, m1 = 2.5 | 1109.65 | –
448.83 K, 49970 kPa, m1 = 2.5 | 1117.84 | –
448.83 K, 69820 kPa, m1 = 2.5 | 1125.62 | –
448.83 K, 99830 kPa, m1 = 2.5 | 1136.51 | –
448.84 K, 1360 kPa, m1 = 1 | 982.19 | –
448.84 K, 15270 kPa, m1 = 1 | 989.78 | –
448.84 K, 30160 kPa, m1 = 1 | 997.78 | –
448.84 K, 49980 kPa, m1 = 1 | 1007.39 | –
448.84 K, 69830 kPa, m1 = 1 | 1016.54 | –
448.84 K, 99810 kPa, m1 = 1 | 1029.19 | –
